What was measured:
[1] = Clinical signs during the 42-day exposure; format: in vivo, pre-pubertal gilts; conditions: 40 μg ZEN/kg BW orally daily for 42 days
Method: Group E gilts were given ZEN orally at a dose of 40 μg ZEN/kg BW (Table 1). At the time of designing the experiment, the above value was equivalent to the no-observed-adverse-effect level (NOAEL) stipulated in the EFSA guidelines, which is 10 times higher than the current dose. Animals from group C received a placebo. The experiment lasted 42 days. The ZEN dose was adjusted to the BW of group E animals. Zearalenone was administered in enteric-coated capsules to avoid problems with uneven food intake. On each day of the experiment, the mycotoxin was administered orally before the morning feeding. Feed was used as a vector. Group C gilts received a placebo, i.e., the same gastro-resistant capsules with the vector, but without ZEN. Zearalenone was dissolved in 500 μL of 96% C2H5OH (96% ethyl, SWW 2442-90, Polskie Odczynniki Chemiczne SA, Gliwice, Poland) to obtain the dose needed (adjusted to BW). The obtained solutions were stored at a temperature of 20 °C for 12 h. Pre-pubertal gilts were weighed once a week to adjust ZEN doses to the needs of each animal. Three gilts from each experiment group were killed on day 7 (1st week of exposure), 14 (2nd week of exposure), 21 (3rd week of exposure), 28 (4th week of exposure), 35 (5th week of exposure), and 42 (6th week of exposure). […]

[2] = Concentrations of ZEN, α-ZEL and β-ZEL in colon tissue (immunoaffinity extraction, LC-MS/MS); format: in vivo, pre-pubertal gilts; conditions: for difference in mean ZEN levels between ascending and descending colon / difference in ZEN concentration in the descending colon: p ≤ 0.01; for ZEN metabolites in the distal colon: gilts given 40 μg ZEN/kg BW orally daily, 42 days
Method: (§1) Group E gilts were given ZEN orally at a dose of 40 μg ZEN/kg BW (Table 1). At the time of designing the experiment, the above value was equivalent to the no-observed-adverse-effect level (NOAEL) stipulated in the EFSA guidelines, which is 10 times higher than the current dose. Animals from group C received a placebo. The experiment lasted 42 days. The ZEN dose was adjusted to the BW of group E animals. Zearalenone was administered in enteric-coated capsules to avoid problems with uneven food intake. On each day of the experiment, the mycotoxin was administered orally before the morning feeding. Feed was used as a vector. Group C gilts received a placebo, i.e., the same gastro-resistant capsules with the vector, but without ZEN. Zearalenone was dissolved in 500 μL of 96% C2H5OH (96% ethyl, SWW 2442-90, Polskie Odczynniki Chemiczne SA, Gliwice, Poland) to obtain the dose needed (adjusted to BW). The obtained solutions were stored at a temperature of 20 °C for 12 h. Pre-pubertal gilts were weighed once a week to adjust ZEN doses to the needs of each animal. Three gilts from each experiment group were killed on day 7 (1st week of exposure), 14 (2nd week of exposure), 21 (3rd week of exposure), 28 (4th week of exposure), 35 (5th week of exposure), and 42 (6th week of exposure). On each of the above dates, the animals were euthanized by intravenous administration of sodium pentobarbital (Fatro, Ozzano Emilia, BO, Italy). Tissue samples (approx. 1.0 cm × 1.5 cm) from the middle parts of both examined colon sections were collected immediately after cardiac arrest. Samples were washed with phosphate buffer and prepared for toxicological analyses and gene expression assessment. Laboratory analyses were conducted within one month after tissue sampling.
Zearalenone, α-ZEL, and β-ZEL were extracted from tissue samples using immunoaffinity columns (Zearala-TestTM Zearalenone Testing System, G1012, VICAM, Watertown, MA, USA) according to the manufacturer’s instructions. The eluates were placed in a water bath at 50 °C and evaporated in nitrogen stream. Until chromatographic analysis, the dry residues were stored at −20 °C. The results were verified by mass spectrometry and the procedure was monitored using internal standards.
ZEN, α-ZEL, and β-ZEL tissue concentrations were determined using an Agilent 1260 liquid chromatograph (LC) and an Agilent 6470 mass spectrometer (MS). The prepared samples were analyzed using an Agilent ZORBAX high-resolution HPLC column (Agilent Eclipse Plus C18; 2.1 × 50 mm, 1.8 µm) in a gradient elution program. The mobile phase consisted of 0.1% (v/v) formic acid dissolved in water (solvent A) and 0.1% (v/v) formic acid dissolved in acetonitrile (solvent B). The gradient program began with 20% B, which was increased to 100% B after 4.0 min and decreased to 20% B after 0.1 min.
Mycotoxins were quantified using external standards and were expressed in ppb (ng/mL). Calibration standards are fitted to the detector to eliminate detector influences that may reduce test sensitivity. Following the procedure described for the remaining samples, calibration standards were dissolved in the matrix samples (matrix-matched calibration). The material for the preparation of calibration standards was free from mycotoxins. The signal-to-noise ratio (3:1) was […] for ZEN, α-ZEL, and β-ZEL. The LOQ was defined as three times the LOD.
Electrospray ionization (ESI) mass spectrometry was performed in negative ion mode. MS/MS indices were optimized for all compounds. Using a six-level calibration curve, linearity was assessed.
The results were statistically processed at the Department of Discrete Mathematics and Theoretical Computer Science, Faculty of Mathematics and Computer Science of the University of Warmia and Mazury in Olsztyn. […]

[3] = system: GSTπ1 gene; assay: GSTπ1 mRNA expression in the ascending and descending colon (qPCR); format: in vivo, pre-pubertal gilts; conditions: for difference in GSTπ1 gene expression between groups C and E: p ≤ 0.05; for average expression of the GSTπ1 gene during the entire experiment (expression ratio vs control at start = 1.00): group E
Method: as §1
(§2) Colon tissue samples were collected immediately after cardiac arrest. According to the manufacturer’s instructions (Sigma-Aldrich, Taufkirchen, Germany), samples were stored in RNAlater solution.
(§3) According to the manufacturer’s protocol, total RNA was extracted from tissues preserved in RNAlater (ca. 20 mg per sample; […] in each group) using the Total RNA Mini kit (A&A Biotechnology, Gdynia, Poland). RNA samples were incubated in ribonuclease-free DNAse I (Roche Diagnostics, Mannheim, Germany) to prevent contamination with genomic DNA. Overall RNA quality and purity from all samples were assessed using a BioPhotometer (Eppendorf, Germany) and the results were used for cDNA synthesis using the RevertAid™ First Strand cDNA Synthesis Kit (Fermentas, Burlington, ON, Canada). According to the manufacturer’s protocol, the reaction was performed using a cDNA synthesis reaction mixture for each sample, which consisted of 1 µg of total RNA and 0.5 µg of oligo (dT)18 primers. The first synthesized cDNA chain was stored at −20 °C pending further analysis.
(§4) Real-time PCR primers for target mRNA were designed using the Primer-BLAST tool based on reference species (Table 4). Real-time PCR was performed on an ABI 7500 Real-Time PCR system (Applied Biosystems, Foster City, CA, USA) in single plex mode; further procedures were performed according to the manufacturer’s instructions. Each PCR reaction tube contained 10 μL of the FastStart SYBR Green Master ROX mix (Roche Diagnostics), 0.25–0.5 μM of each primer (forward and reverse; Table 4), and 1 μL of the previously synthesized cDNA as a template, supplemented with PCR-grade H2O to a final volume of 20 μL. […]

[4] = cited from earlier work
[5] = system: CYP1A1 gene; assay: CYP1A1 mRNA expression in the ascending and descending colon (qPCR); format: in vivo, pre-pubertal gilts; set-up: difference in CYP1A1 gene expression between groups C and E: scale not given here; conditions: for mean CYP1A1 gene expression during the entire experiment (expression ratio vs control at start = 1.00): group E
Method: as §1, §2, §3
as §4, with “μL. The reaction was performed under the following standard thermal conditions: 95 °C for 10 min, followed by 45 cycles of 95 °C for 15 s and 60 °C for 1 min. Negative water controls (NTCs) were included to rule out cross-contamination. The quality of PCR products was verified by melting curve analysis, followed by agarose gel electrophoresis. The specificity of the designed primer pairs was confirmed by sequencing the obtained PCR products ([…]).” for “μL.”

[6] = set-up: method as in PMID 25283475; conditions: value at the time of designing the experiment; 10 times higher than the current dose; cited from earlier work

SMILES: C[C@H]1CCCC(=O)CCC/C=C/c2cc(O)cc(O)c2C(=O)O1 [ZEN, Zearalenone]
- clinical signs of zearalenone mycotoxicosis [1]: No clinical signs
- ZEN strength in the ascending colon, on average ([2]; 40 μg ZEN/kg BW orally daily, average over each week of exposure (weeks 1-6)): 2.09 ng ZEN/g
- mean ZEN strength in the descending colon, on average ([2]; 40 μg ZEN/kg BW orally daily, first three weeks of exposure): 6.4 ng ZEN/g
- concentration at 4 week of exposure ([2]; female, pig, descending colon tissue, po, 40 μg ZEN/kg BW orally daily, week 4): 205 ng/g
- concentration at 5 week of exposure ([2]; female, pig, descending colon tissue, po, 40 μg ZEN/kg BW orally daily, week 5): 177 ng/g
- concentration at 6 week of exposure ([2]; female, pig, descending colon tissue, po, 40 μg ZEN/kg BW orally daily, week 6): 112 ng/g
- difference in mean ZEN levels between ascending and descending colon ([2]; week 4): 200.33 ng ZEN/g
- difference in ZEN concentration in the descending colon ([2]; week 4 vs week 1): 200.31 ng ZEN/g
- difference in ZEN concentration in the descending colon ([2]; week 4 vs week 2): 198.21 ng ZEN/g
- difference in ZEN concentration in the descending colon ([2]; week 4 vs week 3): 197.44 ng ZEN/g
- difference in mean ZEN levels between ascending and descending colon ([2]; week 5): 173.61 ng ZEN/g
- difference in ZEN concentration in the descending colon ([2]; week 5 vs week 1): 172.31 ng ZEN/g
- difference in ZEN concentration in the descending colon ([2]; week 5 vs week 2): 170.21 ng ZEN/g
- difference in mean ZEN levels between ascending and descending colon ([2]; week 6): 109.55 ng ZEN/g
- difference in GSTπ1 gene expression between groups C and E ([3]; ascending colon, week 1, higher in group C): 0.35
- difference in GSTπ1 gene expression between groups C and E ([3]; descending colon, week 2, lower in group E): 0.27
- difference in GSTπ1 gene expression between groups C and E ([3]; descending colon, week 6, lower in group E): 0.34
- average expression of the GSTπ1 gene during the entire experiment (expression ratio vs control at start = 1.00) ([3]; ascending colon, group C 0.96): 0.39
- average expression of the GSTπ1 gene during the entire experiment (expression ratio vs control at start = 1.00) ([3]; descending colon, group C 1.07): 0.94
- solubility in fats and alkaline aqueous solutions ([4]; fats and alkaline aqueous solutions): soluble in fats and alkaline aqueous solutions
- solubility in water ([4]; water): almost insoluble in water
- difference in CYP1A1 gene expression between groups C and E ([5]; ascending colon, week 4, p ≤ 0.01): 0.98
- difference in CYP1A1 gene expression between groups C and E ([5]; ascending colon, week 5, p ≤ 0.01): 1.16
- difference in CYP1A1 gene expression between groups C and E ([5]; descending colon, week 1, higher in group C, p ≤ 0.01): 0.41
- difference in CYP1A1 gene expression between groups C and E ([5]; descending colon, week 2, higher in group C, p ≤ 0.05): 0.14
- difference in CYP1A1 gene expression between groups C and E ([5]; descending colon, week 3, higher in group E, p ≤ 0.05): 0.13
- difference in CYP1A1 gene expression between groups C and E ([5]; descending colon, week 5, higher in group C, p ≤ 0.05): 0.24
- mean CYP1A1 gene expression during the entire experiment (expression ratio vs control at start = 1.00) ([5]; ascending colon, group C 0.99): 0.73
- mean CYP1A1 gene expression during the entire experiment (expression ratio vs control at start = 1.00) ([5]; descending colon, group C 0.57): 0.43
- no-observed-adverse-effect level (NOAEL) [6]: 40 μg ZEN/kg BW

SMILES: C[C@H]1CCC[C@H](O)CCC/C=C/c2cc(O)cc(O)c2C(=O)O1 [α-ZEL, α-zearalenol]
- ZEN metabolites in the distal colon [2]: no ZEN metabolites (α-ZEL and β-ZEL) were found

SMILES: C[C@H]1CCC[C@@H](O)CCC/C=C/c2cc(O)cc(O)c2C(=O)O1 [β-ZEL, β-zearalenol]
- ZEN metabolites in the distal colon [2]: no ZEN metabolites (α-ZEL and β-ZEL) were found

Source: PMC12298104, “mRNA Expression of Two Colon Enzymes in Pre-Pubertal Gilts During a 42-Day Exposure to Zearalenone” (Toxins, 2025)
